# According to EP0133934A2, “Pharmacologically active 1,3,4-thiadiazol-(3,2-a)-thieno-(2,3-d)-pyrimidin-5-(H)one derivatives” (NIKEPHARMA S.r.l., priority 1983, dated 1985):
# Read-outs that look alike come from different tables or passages of the source.
# Assays:
# [1] = test system: acetic acid peritonitis; experiment: Anti-exudative activity: acetic acid peritonitis in the rat; format: in vivo; details: for EXUDATE VOLUME ml ± E.S.: controls 2.58 ± 0.18; for PERITONEAL EXUDATE ml ± E.S.: controls 2.91 ± 0.12; for anti-exudative activity: oral dose of 10 mg/kg, result in words
# Protocol: The test was carried out according to the procedure described by Arrigoni-Martelli (Boll.Chim. Far. 107, 29, 1968). This method is based upon the evaluation of the anti-exudative effect of a drug at the peritoneal level, following a intraperitoneal injection of 10 ml/kg of a 0.5% acetic acid solution.
# The compounds under test were administered oral ly one hour before the inflammatory agent; 30 minutes after the treatment the animals were killed and the fluid from the peritoneal cavity was drawn and measured.
# The test compounds were administered by oral route 1 hour before intraperitoneal injection of acetic acid (10 ml/kg of a 0.5% solution).
# The anti-exudative activity was determined on the basis of the peritoneal exudate of the treated animals, in comparison with the controls.
# [2] = test system: phenylbenzoquinone writhing test; experiment: Phenylbenzoquinone writhing test in the mouse (ED50 and duration of effect); format: in vivo; details: for % INHI-BITION / N° OF WRITHES IN 10' ml ± E.S.: Table 6, oral, one hour before the test; for N° OF WRITHES IN 10' ml ± E.S.: controls 52.4 ± 1.69; for % INHIBITION / Nº OF WRITHES IN 10' ml ± E.S.: Table 7, oral 1 mg/kg; for Nº OF WRITHES IN 10' ml ± E.S.: controls 53.2 ± 1.26
# Protocol: The analgesic effect was determined by the number of writhes of the abdomen recorded during 10 minutes (from 5 to 15 minutes after the phenylbenzo quinone injection).
# [3] = test system: Carrageenin pleuritis; experiment: Carrageenin pleuritis in the rat; format: in vivo; details: for EXUDATE VOLUME: 30 min. before carrageenin and 6 hours after, exudate at 18 hours, controls 2.76 ± 0.38
# Protocol: Compound HA-34 was tested for the protective activity against the exudative pleuritis reaction induced by carrageenin. HA-34 was administered 30 min. before the injection of carrageenin, and 6 hours after it. The experiment was carried out on male Spra- gue-Dawley rats, anestethized with ethyl urethane, which were subjected, in their right pleural cavity, to injection of 1.5 ml of air and then 0.1 ml of a 1% carrageenin solution, in sterile normal saline, according to the procedure by Van Armann et al. (J. Pharmac. Exp. Ther., 150, 328, 1965). Indometha cin and Piroxicam were employed as the control drugs, under the same conditions. 18 Hours after the intrapleuric carrageenin injec tion, the animals were killed by means of ether inhalation, and the pleuric exudate was collected and measured.
# [4] = test system: carrageenin oedema; experiment: Antiinflammatory activity: carrageenin oedema in the rat; format: in vivo; details: po, 4 h, read-out: OEDEMA INHIBITION % at the fourth hour
# Protocol: (§1) The activity tests were carried out on male Spra gue-Dawley rats weighing 200+20 g and on male Swiss mice weighing 26+3 g.
# (§2) The test compounds were administered orally by means of gastroesophageal tube, in the form of a suspen sion in a 10 ml/kg mucilage of 5% gum arabic; and intraperitoneally in the form of an aqueous suspen sion added with a few drops of Tween 80, in the con stant volume of 10 ml/kg.
# The compounds under test and the control ones were administered orally one hour before the injection of 0.1 ml of 1% carrageenin in the right paw of the animals.
# The volume of the paw was measured by means of a plethysmograph immediately before the injection and 2, 4 and 6 hours after.
# The results were expressed as percentage inhibi tion of the oedema in the treated animals in comparison with the control animals, at the time of the maximum oedema development (fourth hour after the carrageenin injection).
# [5] = test system: Writhing test induced by phenyl-benzoquinone; experiment: Phenylbenzoquinone writhing test in the rat; format: in vivo
# Protocol: as §1, §2
# [6] = test system: gastric ulceration; format: in vivo, rat; details: os; for ULCERA-TION DEGREE: scale 0 to 4
# Protocol: To rats fasted for 18 hours, with water ad libitum, were administered the compounds under test at "0" time and after 2 hours. Control rats were treated with established anti-inflammatory agents.
# 6 Hours after the beginning of the test, the animals were killed by ether inhalation.
# Gastric ulceration was assessed on the ground of values ranging from 0 to 4: • 0 = no ulceration; • 1 = slight iperhaemia and/or a few ulcers; • 2 = severe iperhaemia and many punctiform ulcers; • 3 = severe submucosal hemorrage, one large ulcer and many punctiform ulcers; • 4 severe submucosal hemorrage and many large ulcers.
# The ulcerogenic index was measured by the following formula (Lwoff. J.M., J. Pharmacol., 2, 81, 1971): [formula]
# [7] = 30 min. before phenylbenzoquinone
# [8] = os, 100 mg/kg, one hour before carrageenin
# [9] = Rattus norvegicus, po, 10 min, os, read-out: % INHIBI-TION
# [10] = Rattus norvegicus, po, Table 4, os, 10 mg/kg
# [11] = 400 mg/kg, at 0 time and after 2 hours, killed at 6 hours
smiles,measurement,setting,value
"CN1C(C(=O)Nc2ccccn2)=C(O)c2ccccc2S1(=O)=O [PIROXICAM, Piroxicam]",inhibition in vivo at 0.1 mg/kg,"[1]; Rattus norvegicus, po, Table 8, oral, 0.1 mg/kg",24.6%
same,inhibition in vivo at 1 mg/kg,"[1]; Rattus norvegicus, po, Table 8, oral, 1 mg/kg",51.2%
same,inhibition in vivo at 10 mg/kg,"[1]; Rattus norvegicus, po, Table 8, oral, 10 mg/kg",80%
same,inhibition in vivo at 20 mg/kg,"[1]; Rattus norvegicus, po, Table 8, oral, 20 mg/kg",95.2%
same,ED50,"[1]; Rattus norvegicus, oral administration 1 hour before i.p. acetic acid",0.7 mg/kg
same,EXUDATE VOLUME ml ± E.S.,"[1]; Table 8, oral, 0.1 mg/kg, 1 hour before acetic acid",1.94 ± 0.08 mL
same,EXUDATE VOLUME ml ± E.S.,"[1]; Table 8, oral, 0.5 mg/kg",1.37 ± 0.07 mL
same,EXUDATE VOLUME ml ± E.S.,"[1]; Table 8, oral, 1 mg/kg",1.26 ± 0.06 mL
same,EXUDATE VOLUME ml ± E.S.,"[1]; Table 8, oral, 10 mg/kg",0.49 ± 0.04 mL
same,EXUDATE VOLUME ml ± E.S.,"[1]; Table 8, oral, 20 mg/kg",0.12 ± 0.06 mL
same,ED50,"[2]; Mus musculus, 1 h, oral administration one hour before the test, read-out: ED50",1.2 mg/kg
same,% INHI-BITION,[2]; 0.1 mg/kg,11.8%
same,% INHI-BITION,[2]; 0.5 mg/kg,28.4%
same,N° OF WRITHES IN 10' ml ± E.S.,[2]; 0.5 mg/kg,37.5 ± 1.26
same,% INHI-BITION,[2]; 1 mg/kg,54.8%
same,N° OF WRITHES IN 10' ml ± E.S.,[2]; 1 mg/kg,23.7 ± 2.18
same,% INHI-BITION,[2]; 2 mg/kg,61.8%
same,% INHI-BITION,[2]; 5 mg/kg,82.2%
same,N° OF WRITHES IN 10' ml ± E.S.,[2]; 5 mg/kg,9.3 ± 1.44
same,% INHIBITION,[2]; [7],54.5%
same,Nº OF WRITHES IN 10' ml ± E.S.,[2]; [7],24.2 ± 1.62
same,% INHIBITION,[2]; 1 h before phenylbenzoquinone,57.3%
same,Nº OF WRITHES IN 10' ml ± E.S.,[2]; 1 h before phenylbenzoquinone,22.7 ± 2.18
same,% INHIBITION,[2]; 3 h before phenylbenzoquinone,67.6%
same,% INHIBITION,[2]; 4 h before phenylbenzoquinone,63.3%
same,% INHIBITION,[2]; 6 h before phenylbenzoquinone,65.0%
same,% INHIBITION,[2]; 8 h before phenylbenzoquinone,60.1%
same,Nº OF WRITHES IN 10' ml ± E.S.,[2]; 8 h before phenylbenzoquinone,21.2 ± 0.72
same,% INHIBITION,[2]; 24 h before phenylbenzoquinone,57.5%
same,Nº OF WRITHES IN 10' ml ± E.S.,[2]; 24 h before phenylbenzoquinone,22.6 ± 1.37
same,% INHIBITION,[2]; 32 h before phenylbenzoquinone,12.0%
same,% INHIBITION,[3]; 5 mg/kg,39.5%
same,EXUDATE VOLUME,[3]; 5 mg/kg,1.67 ± 0.33
same,% INHIBITION,[3]; 10 mg/kg,64.1%
same,EXUDATE VOLUME,[3]; 10 mg/kg,0.99 ± 0.40
CCOc1ccccc1-c1nn2c(=O)c3c4c(sc3nc2s1)CCCC4 [HA 36],inhibition in vivo at 100 mg/kg,[4]; [8],52.7 ± 0.61%
same,inhibition in vivo at 0.5 mg/kg,[5]; [9],22%
same,inhibition in vivo at 5 mg/kg,[5]; [9],60%
same,inhibition in vivo at 10 mg/kg,[1]; [10],49%
same,PERITONEAL EXUDATE ml ± E.S.,"[1]; Table 4, os, 10 mg/kg",1.48 ± 0.10 mL
same,ULCERA-TION INDEX,[6]; 400 mg/kg,0
same,% ANIMALS WITH ULCERS,[6]; [11],0%
same,ULCERA-TION DEGREE,[6]; 400 mg/kg,0
"CC(=O)Oc1ccccc1C(=O)O [ASA, Acetylsali cylic acid]",inhibition in vivo at 100 mg/kg,[4],31.4 ± 0.37%
same,inhibition in vivo at 50 mg/kg,"[5]; Rattus norvegicus, po, 10 min, read-out: % INHIBI-TION",40%
same,PERITONEAL EXUDATE ml ± E.S.,"[1]; Table 4, os, 20 mg/kg",2.76 ± 0.13 mL
same,anti-exudative activity,[1],did not display valuable anti-exudat- ing properties
same,% ANIMALS WITH ULCERS,[6]; 200 mg/kg,78%
same,ULCERA-TION INDEX,[6]; 200 mg/kg,112
same,ULCERA-TION DEGREE,[6]; 200 mg/kg,1.5
O=c1c2c3c(sc2nc2sc(-c4ccccc4)nn12)CCCC3 [HA 33],inhibition in vivo at 100 mg/kg,[4]; [8],39.6 ± 0.76%
same,inhibition in vivo at 0.5 mg/kg,[5]; [9],27%
same,inhibition in vivo at 5 mg/kg,[5]; [9],70%
same,inhibition in vivo at 10 mg/kg,[1]; [10],68%
same,PERITONEAL EXUDATE ml ± E.S.,"[1]; Table 4, os, 10 mg/kg",1.04 ± 0.16 mL
same,ULCERA-TION INDEX,[6]; 400 mg/kg,0
same,% ANIMALS WITH ULCERS,[6]; [11],0%
same,ULCERA-TION DEGREE,[6]; 400 mg/kg,0
Cc1nn2c(=O)c3c4c(sc3nc2s1)CCC4 [HA 30],inhibition in vivo at 100 mg/kg,[4]; [8],35.6 ± 0.74%
same,inhibition in vivo at 0.5 mg/kg,[5]; [9],15%
same,inhibition in vivo at 5 mg/kg,[5]; [9],36%
same,analgesic action,"[5]; oral doses of 5 and 0.5 mg/kg, result in words",substan tially comparable to the reference compound
same,inhibition in vivo at 10 mg/kg,[1]; [10],14%
same,PERITONEAL EXUDATE ml ± E.S.,"[1]; Table 4, os, 10 mg/kg",2.50 ± 0.10 mL
same,anti-exudative activity,[1],did not display valuable anti-exudat- ing properties
"Cc1cccc(Nc2ccccc2C(=O)O)c1C [MFA, mephenamic acid]",inhibition in vivo at 100 mg/kg,[4]; [8],49.2 ± 0.86%
same,inhibition in vivo at 5 mg/kg,[5]; [9],24%
same,inhibition in vivo at 10 mg/kg,"[5]; Rattus norvegicus, po, 10 min, os, 10 mg/kg, read-out: % INHIBI-TION",33%
same,inhibition in vivo at 10 mg/kg,[1]; [10],6%
same,PERITONEAL EXUDATE ml ± E.S.,"[1]; Table 4, os, 10 mg/kg",2.60 ± 0.15 mL
same,anti-exudative activity,[1],did not display valuable anti-exudat- ing properties
same,% ANIMALS WITH ULCERS,[6]; 200 mg/kg,50%
same,ULCERA-TION INDEX,[6]; 200 mg/kg,50
same,ULCERA-TION DEGREE,[6]; 200 mg/kg,1.0
CCc1nn2c(=O)c3c4c(sc3nc2s1)CCCC4 [HA 32],inhibition in vivo at 100 mg/kg,[4]; [8],49.6 ± 0.82%
same,inhibition in vivo at 0.5 mg/kg,[5]; [9],48%
same,inhibition in vivo at 5 mg/kg,[5]; [9],76%
same,inhibition in vivo at 10 mg/kg,[1]; [10],74%
same,PERITONEAL EXUDATE ml ± E.S.,"[1]; Table 4, os, 10 mg/kg",0.93 ± 0.14 mL
same,ULCERA-TION INDEX,[6]; 400 mg/kg,0
same,% ANIMALS WITH ULCERS,[6]; [11],0%
same,ULCERA-TION DEGREE,[6]; 400 mg/kg,0
